What was measured:
Type in all cases: cell-based, human
SF-295 = experiment: SRB anti-cancer assay, CNS Cancer; settings: SF-295 (CNS Cancer), 48 h
OVCAR-8 = experiment: SRB anti-cancer assay, Ovarian Cancer; settings: OVCAR-8 (Ovarian Cancer), 48 h
OVCAR-3 = experiment: SRB anti-cancer assay, Ovarian Cancer; settings: OVCAR-3 (Ovarian Cancer), 48 h
ACHN = experiment: SRB anti-cancer assay, Renal Cancer; settings: 48 h
UACC-257 = experiment: SRB anti-cancer assay, Melanoma; settings: UACC-257 (Melanoma), 48 h
SR = experiment: SRB anti-cancer assay, Leukemia; settings: 48 h
OVCAR-5 = experiment: SRB anti-cancer assay, Ovarian Cancer; settings: OVCAR-5 (Ovarian Cancer), 48 h
UO-31 = experiment: SRB anti-cancer assay, Renal Cancer; settings: UO-31 (Renal Cancer), 48 h
CAKI-1 = experiment: SRB anti-cancer assay, Renal Cancer; settings: CAKI-1 (Renal Cancer), 48 h
SW-620 = experiment: SRB anti-cancer assay, Colon Cancer; settings: SW-620 (Colon Cancer), 48 h
MDA-N = experiment: SRB anti-cancer assay, Breast Cancer; settings: 48 h
COLO 205 = experiment: SRB anti-cancer assay, Colon Cancer; settings: COLO 205 (Colon Cancer), 48 h
CCRF-CEM = experiment: SRB anti-cancer assay, Leukemia; settings: 48 h
SK-MEL-28 = experiment: SRB anti-cancer assay, Melanoma; settings: SK-MEL-28 (Melanoma), 48 h
EKVX = EKVX (Non-Small Cell Lung Cancer), 48 h
RPMI-8226 = experiment: SRB anti-cancer assay, Leukemia; settings: RPMI-8226 (Leukemia), 48 h
SN12C = experiment: SRB anti-cancer assay, Renal Cancer; settings: 48 h
MALME-3M = experiment: SRB anti-cancer assay, Melanoma; settings: MALME-3M (Melanoma), 48 h
HCC-2998 = experiment: SRB anti-cancer assay, Colon Cancer; settings: HCC-2998 (Colon Cancer), 48 h
SNB-75 = experiment: SRB anti-cancer assay, CNS Cancer; settings: SNB-75 (CNS Cancer), 48 h
HOP-62 = HOP-62 (Non-Small Cell Lung Cancer), 48 h
HCT-116 = experiment: SRB anti-cancer assay, Colon Cancer; settings: HCT-116 (Colon Cancer), 48 h
A498 = experiment: SRB anti-cancer assay, Renal Cancer; settings: 48 h
NCI-H23 = NCI-H23 (Non-Small Cell Lung Cancer), 48 h
HCT-15 = experiment: SRB anti-cancer assay, Colon Cancer; settings: HCT-15 (Colon Cancer), 48 h
786-0 = experiment: SRB anti-cancer assay, Renal Cancer; settings: 786-0 (Renal Cancer), 48 h
OVCAR-4 = experiment: SRB anti-cancer assay, Ovarian Cancer; settings: OVCAR-4 (Ovarian Cancer), 48 h
SNB-19 = experiment: SRB anti-cancer assay, CNS Cancer; settings: SNB-19 (CNS Cancer), 48 h
NCI-H226 = NCI-H226 (Non-Small Cell Lung Cancer), 48 h
[1] = read-out: LC50 (the source's name)

`N=c1nc(N)c2ncn([C@@H]3O[C@H](CO)[C@@H](O)[C@H]3O)c2c(N)n1` [Compound 14-2, 4,8-Diamino-6H-6-imino-1-β-D-ribofuranosylimidazo[4,5-e][1,3]diazepine] gave a GI50 (SF-295) of 24.7 µM, a TGI (SF-295) of 63.7 µM and a CC50 (SF-295; [1]) of over 100 µM. It also gave a GI50 (OVCAR-8) of 13.2 µM, an LC50 (50% lethal concentration) (OVCAR-8) of 75.3 µM and a TGI (OVCAR-8) of 31.5 µM. The GI50 (OVCAR-3) was 3.53 µM, the TGI (OVCAR-3) was 13.2 µM and the CC50 (OVCAR-3; [1]) was 42.3 µM. For the same molecule, the GI50 (ACHN) was 12.3 µM, the TGI (ACHN) was 27.2 µM and the CC50 (ACHN; [1]) was 59.9 µM. The GI50 (UACC-257) was 12.7 µM, the TGI (UACC-257) was 25.8 µM and the CC50 (UACC-257; [1]) was 52.3 µM. It also gave a GI50 (SR) of over 100 µM, an LC50 (concentration killing 50% of cells) (SR) of over 100 µM and a TGI (SR) of over 100 µM. For the same molecule, the GI50 (OVCAR-5) was 16.8 µM, the TGI (OVCAR-5) was 32.7 µM and the CC50 (OVCAR-5; [1]) was 64 µM. The GI50 (UO-31) was 13.7 µM, the TGI (UO-31) was 28.9 µM and the CC50 (UO-31; [1]) was 61.2 µM. It also gave a GI50 (CAKI-1) of 20.3 µM, a TGI (CAKI-1) of 71 µM and a CC50 (CAKI-1; [1]) of over 100 µM. It also gave a GI50 (SW-620) of 17.2 µM, a TGI (SW-620) of over 100 µM and a CC50 (SW-620; [1]) of over 100 µM. It also gave a GI50 (MDA-N) of 12.5 µM, a TGI (MDA-N) of 26.1 µM and a CC50 (MDA-N; [1]) of 54.5 µM. The GI50 (COLO 205) was 21 µM, the LC50 (COLO 205) was 63.4 µM and the TGI (COLO 205) was 36.5 µM. For the same molecule, the GI50 (CCRF-CEM) was 59 µM, the TGI (CCRF-CEM) was over 100 µM and the CC50 (CCRF-CEM; [1]) was over 100 µM. It also gave a GI50 (SK-MEL-28) of 25.4 µM, an LC50 (SK-MEL-28) of over 100 µM and a TGI (SK-MEL-28) of 81.1 µM. It also gave a GI50 (EKVX) of 14.3 µM, a TGI (EKVX) of 27.3 µM and a CC50 (EKVX; [1]) of 52.3 µM. The GI50 (RPMI-8226) was 32.8 µM, the TGI (RPMI-8226) was over 100 µM and the CC50 (RPMI-8226; [1]) was over 100 µM. For the same molecule, the GI50 (SN12C) was 14.5 µM, the TGI (SN12C) was 29.8 µM and the CC50 (SN12C; [1]) was 61.2 µM. It also gave a GI50 (MALME-3M) of 2.2 µM, an LC50 (MALME-3M) of 25.3 µM and a TGI (MALME-3M) of 6.79 µM. The GI50 (HCC-2998) was 16.4 µM, the TGI (HCC-2998) was 30.8 µM and the CC50 (HCC-2998; [1]) was 58 µM. It also gave a GI50 (SNB-75) of 27.9 µM, an LC50 (concentration killing 50% of cells) (SNB-75) of over 100 µM and a TGI (SNB-75) of 99.1 µM. The GI50 (HOP-62) was 28.5 µM, the LC50 (concentration for 50% net cell kill) (HOP-62) was over 100 µM and the TGI (HOP-62) was over 100 µM. The GI50 (HCT-116) was 13.3 µM, the TGI (HCT-116) was 26.8 µM and the CC50 (HCT-116; [1]) was 54.2 µM. The GI50 (A498) was 23.1 µM, the TGI (A498) was 74.7 µM and the CC50 (A498; [1]) was over 100 µM. It also gave a GI50 (NCI-H23) of 16.8 µM, a TGI (NCI-H23) of 33.4 µM and a CC50 (NCI-H23; [1]) of 66.2 µM. It also gave a GI50 (HCT-15) of 11.8 µM, a TGI (HCT-15) of 27.4 µM and a CC50 (HCT-15; [1]) of 63.5 µM. The GI50 (786-0) was 15.7 µM, the TGI (786-0) was 47 µM and the GI50 (OVCAR-4) was 16.7 µM. For the same molecule, the TGI (OVCAR-4) was 35.6 µM, the CC50 (OVCAR-4; [1]) was 76.1 µM and the GI50 (SNB-19) was 17.1 µM. For the same molecule, the TGI (SNB-19) was 51.5 µM, the CC50 (SNB-19; [1]) was over 100 µM and the GI50 (NCI-H226) was 33.2 µM. For the same molecule, the TGI (NCI-H226) was over 100 µM and the CC50 (NCI-H226; [1]) was over 100 µM.
